# Source: US20240409585A1, “MACROCYCLIC IMMUNOMODULATORS” (priority 2021, published 2024)
# Bridge positions count the residues as written; N and C are the ends. Square brackets hold non-standard residues; d marks the D form. Peptide text beside a SMILES is read from it. * marks the point of attachment. Tyr(3-NO2) = N[C@@H](Cc1ccc(O)c([N+](=O)[O-])c1)C(=O)O; Phe(4-CONH2) = NC(=O)c1ccc(C[C@H](N)C(=O)O)cc1; Phe(4-COOH) = N[C@@H](Cc1ccc(C(=O)O)cc1)C(=O)O; Bip = N[C@@H](Cc1ccc(-c2ccccc2)cc1)C(=O)O; Phe(3-OMe) = COc1cccc(C[C@H](N)C(=O)O)c1; Ala(2-furyl) = N[C@@H](Cc1ccco1)C(=O)O; Phe(2-F) = N[C@@H](Cc1ccccc1F)C(=O)O; 3Pal = N[C@@H](Cc1cccnc1)C(=O)O; 4Pal = N[C@@H](Cc1ccncc1)C(=O)O; Carboxymethyl = O=C(O)C*; NMeA = CN[C@@H](C)C(=O)O
# Target: T1, PE-labeled human PD-L1-Ig binding to Jurkat cell line over-expressing human PD-1 (Jurkat-PD-1) (Homo sapiens, UniProt Q15116)
# T1 construct: expressed in transfected cells; host or cells: Jurkat
# Experiment: Jurkat-PD-1 Cell Binding High-Content Screening Assay (CBA): Method 1
# Details: Jurkat-hPD-1 cells, PE-labeled PD-L1-Ig 20 nM final; read-out: Jurkat HPDL1 PD1 IC50 (uM) (Method 1)
# T1 sequence (Q15116 25-288): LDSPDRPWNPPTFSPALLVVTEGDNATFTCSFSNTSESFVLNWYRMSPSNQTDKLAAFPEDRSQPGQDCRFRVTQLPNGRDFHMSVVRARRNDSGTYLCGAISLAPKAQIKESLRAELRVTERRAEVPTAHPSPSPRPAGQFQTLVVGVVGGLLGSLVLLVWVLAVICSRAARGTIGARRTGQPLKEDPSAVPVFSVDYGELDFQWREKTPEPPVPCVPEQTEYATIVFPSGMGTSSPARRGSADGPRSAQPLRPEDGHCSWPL
row,IC50,SMILES
1,0.01 µM,CC(C)C[C@@H]1NC(=O)[C@H](Cc2c[nH]c3ccccc23)NC(=O)[C@H](CC(=O)O)NC(=O)[C@H](Cc2ccc(C(=O)O)cc2)NC(=O)[C@H](Cc2ccccc2)NC(=O)CSC[C@@H](C(=O)N[C@@H](C)C(N)=O)NC(=O)[C@H](CO)NC(=O)[C@H](C(C)C)NC(=O)[C@H](CC(C)C)NC(=O)[C@H](CC(N)=O)NC(=O)[C@@H](C)NC(=O)[C@H](C)N(C)C(=O)[C@H](C(C)C)NC(=O)[C@H](Cc2ccc(-c3ccccc3)cc2)NC1=O [Compound 1731] ({CH2CO}-F[Phe(4-COOH)]DWL[Bip]V[NMeA][dA]NLVSCA-NH2; thioether N-14)
2,0.01 µM,COc1cccc(C[C@@H]2NC(=O)[C@H](Cc3ccccc3)NC(=O)CSC[C@@H](C(=O)N[C@@H](C)C(N)=O)NC(=O)[C@H](CO)NC(=O)[C@H](C(C)C)NC(=O)[C@H](CC(C)C)NC(=O)[C@H](CC(N)=O)NC(=O)[C@@H](C)NC(=O)[C@H](C)N(C)C(=O)[C@H](C(C)C)NC(=O)[C@H](Cc3ccc(-c4ccccc4)cc3)NC(=O)[C@H](CC(C)C)NC(=O)[C@H](Cc3c[nH]c4ccccc34)NC(=O)[C@H](CC(=O)O)NC2=O)c1 [Compound 1732] ({CH2CO}-F[Phe(3-OMe)]DWL[Bip]V[NMeA][dA]NLVSCA-NH2; thioether N-14)
3,0.01 µM,CC(C)C[C@@H]1NC(=O)[C@H](Cc2c[nH]c3ccccc23)NC(=O)[C@H](CC(=O)O)NC(=O)[C@H](Cc2ccco2)NC(=O)[C@H](Cc2ccccc2)NC(=O)CSC[C@@H](C(=O)N[C@@H](C)C(N)=O)NC(=O)[C@H](CO)NC(=O)[C@H](C(C)C)NC(=O)[C@H](CC(C)C)NC(=O)[C@H](CC(N)=O)NC(=O)[C@@H](C)NC(=O)[C@H](C)N(C)C(=O)[C@H](C(C)C)NC(=O)[C@H](Cc2ccc(-c3ccccc3)cc2)NC1=O [Compound 1734] ({CH2CO}-F[Ala(2-furyl)]DWL[Bip]V[NMeA][dA]NLVSCA-NH2; thioether N-14)
4,0.02 µM,CC(C)C[C@@H]1NC(=O)[C@H](Cc2c[nH]c3ccccc23)NC(=O)[C@H](CC(=O)O)NC(=O)[C@H](Cc2ccccc2F)NC(=O)[C@H](Cc2ccccc2)NC(=O)CSC[C@@H](C(=O)N[C@@H](C)C(N)=O)NC(=O)[C@H](CO)NC(=O)[C@H](C(C)C)NC(=O)[C@H](CC(C)C)NC(=O)[C@H](CC(N)=O)NC(=O)[C@@H](C)NC(=O)[C@H](C)N(C)C(=O)[C@H](C(C)C)NC(=O)[C@H](Cc2ccc(-c3ccccc3)cc2)NC1=O [Compound 1735] ({CH2CO}-F[Phe(2-F)]DWL[Bip]V[NMeA][dA]NLVSCA-NH2; thioether N-14)
5,0.02 µM,CC(C)C[C@@H]1NC(=O)[C@H](Cc2c[nH]c3ccccc23)NC(=O)[C@H](CC(=O)O)NC(=O)[C@H](Cc2ccc(OCC(=O)O)cc2)NC(=O)[C@H](Cc2ccccc2)NC(=O)CSC[C@@H](C(=O)N[C@@H](C)C(N)=O)NC(=O)[C@H](CO)NC(=O)[C@H](C(C)C)NC(=O)[C@H](CC(C)C)NC(=O)[C@H](CC(N)=O)NC(=O)[C@@H](C)NC(=O)[C@H](C)N(C)C(=O)[C@H](C(C)C)NC(=O)[C@H](Cc2ccc(-c3ccccc3)cc2)NC1=O [Compound 1737] ({CH2CO}-FY(Carboxymethyl)DWL[Bip]V[NMeA][dA]NLVSCA-NH2; thioether N-14)
6,0.02 µM,CC(C)C[C@@H]1NC(=O)[C@H](Cc2c[nH]c3ccccc23)NC(=O)[C@H](CC(=O)O)NC(=O)[C@H](Cc2ccc(O)c([N+](=O)[O-])c2)NC(=O)[C@H](Cc2ccccc2)NC(=O)CSC[C@@H](C(=O)N[C@@H](C)C(N)=O)NC(=O)[C@H](CO)NC(=O)[C@H](C(C)C)NC(=O)[C@H](CC(C)C)NC(=O)[C@H](CC(N)=O)NC(=O)[C@@H](C)NC(=O)[C@H](C)N(C)C(=O)[C@H](C(C)C)NC(=O)[C@H](Cc2ccc(-c3ccccc3)cc2)NC1=O [Compound 1738] ({CH2CO}-F[Tyr(3-NO2)]DWL[Bip]V[NMeA][dA]NLVSCA-NH2; thioether N-14)
7,0.02 µM,CC(C)C[C@@H]1NC(=O)[C@H](Cc2c[nH]c3ccccc23)NC(=O)[C@H](CC(=O)O)NC(=O)[C@H](Cc2ccc(C(N)=O)cc2)NC(=O)[C@H](Cc2ccccc2)NC(=O)CSC[C@@H](C(=O)N[C@@H](C)C(N)=O)NC(=O)[C@H](CO)NC(=O)[C@H](C(C)C)NC(=O)[C@H](CC(C)C)NC(=O)[C@H](CC(N)=O)NC(=O)[C@@H](C)NC(=O)[C@H](C)N(C)C(=O)[C@H](C(C)C)NC(=O)[C@H](Cc2ccc(-c3ccccc3)cc2)NC1=O [Compound 1740] ({CH2CO}-F[Phe(4-CONH2)]DWL[Bip]V[NMeA][dA]NLVSCA-NH2; thioether N-14)
8,0.02 µM,CC(C)C[C@@H]1NC(=O)[C@H](Cc2c[nH]c3ccccc23)NC(=O)[C@H](CC(=O)O)NC(=O)[C@H](Cc2ccc(O)cc2)NC(=O)[C@H](Cc2cccnc2)NC(=O)CSC[C@@H](C(=O)N[C@@H](C)C(N)=O)NC(=O)[C@H](CO)NC(=O)[C@H](C(C)C)NC(=O)[C@H](CC(C)C)NC(=O)[C@H](CC(N)=O)NC(=O)[C@@H](C)NC(=O)[C@H](C)N(C)C(=O)[C@H](C(C)C)NC(=O)[C@H](Cc2ccc(-c3ccccc3)cc2)NC1=O [Compound 1741] ({CH2CO}-[3Pal]YDWL[Bip]V[NMeA][dA]NLVSCA-NH2; thioether N-14)
9,0.02 µM,CC(C)C[C@@H]1NC(=O)[C@H](Cc2c[nH]c3ccccc23)NC(=O)[C@H](CC(=O)O)NC(=O)[C@H](Cc2ccc(O)cc2)NC(=O)[C@H](Cc2ccccc2)NC(=O)CSC[C@@H](C(=O)N[C@@H](C)C(N)=O)NC(=O)[C@H]([C@@H](C)O)NC(=O)[C@H](C(C)C)NC(=O)[C@H](CC(C)C)NC(=O)[C@H](CC(N)=O)NC(=O)[C@@H](C)NC(=O)[C@H](C)N(C)C(=O)[C@H](C(C)C)NC(=O)[C@H](Cc2ccc(-c3ccccc3)cc2)NC1=O [Compound 1744] ({CH2CO}-FYDWL[Bip]V[NMeA][dA]NLVTCA-NH2; thioether N-14)

# Continued, compound first:
row,SMILES,IC50
1,CC(C)C[C@@H]1NC(=O)[C@H](Cc2c[nH]c3ccccc23)NC(=O)[C@H](CC(=O)O)NC(=O)[C@H](Cc2ccc(O)cc2)NC(=O)[C@H](Cc2ccccc2)NC(=O)CSC[C@@H](C(=O)NCC(N)=O)NC(=O)[C@H](CO)NC(=O)[C@H](C(C)C)NC(=O)[C@H](CC(C)C)NC(=O)[C@H](CC(N)=O)NC(=O)[C@@H](C)NC(=O)[C@H](C)N(C)C(=O)[C@H](C(C)C)NC(=O)[C@H](Cc2ccc(-c3ccccc3)cc2)NC1=O [Compound 1729] ({CH2CO}-FYDWL[Bip]V[NMeA][dA]NLVSCG-NH2; thioether N-14),0.01 µM
2,CC(C)C[C@@H]1NC(=O)[C@H](Cc2c[nH]c3ccccc23)NC(=O)[C@H](CC(=O)O)NC(=O)[C@H](Cc2ccc(O)cc2)NC(=O)[C@H](Cc2ccncc2)NC(=O)CSC[C@@H](C(=O)N[C@@H](C)C(N)=O)NC(=O)[C@H](CO)NC(=O)[C@H](C(C)C)NC(=O)[C@H](CC(C)C)NC(=O)[C@H](CC(N)=O)NC(=O)[C@@H](C)NC(=O)[C@H](C)N(C)C(=O)[C@H](C(C)C)NC(=O)[C@H](Cc2ccc(-c3ccccc3)cc2)NC1=O [Compound 1730] ({CH2CO}-[4Pal]YDWL[Bip]V[NMeA][dA]NLVSCA-NH2; thioether N-14),0.01 µM
3,CC(C)C[C@@H]1NC(=O)[C@H](C)NC(=O)[C@@H](C)NC(=O)[C@H](C)N(C)C(=O)[C@H](C(C)C)NC(=O)[C@H](Cc2ccc(-c3ccccc3)cc2)NC(=O)[C@H](CC(C)C)NC(=O)[C@H](Cc2c[nH]c3ccccc23)NC(=O)[C@H](CC(=O)O)NC(=O)[C@H](Cc2ccc(O)cc2)NC(=O)[C@H](Cc2ccccc2)NC(=O)CSC[C@@H](C(=O)N[C@@H](C)C(N)=O)NC(=O)[C@H](CO)NC(=O)[C@H](C(C)C)NC1=O [Compound 1733] ({CH2CO}-FYDWL[Bip]V[NMeA][dA]ALVSCA-NH2; thioether N-14),0.01 µM
4,CC(C)C[C@@H]1NC(=O)[C@H](Cc2c[nH]c3ccccc23)NC(=O)[C@H](CC(=O)O)NC(=O)[C@H](Cc2ccc(O)cc2)NC(=O)[C@H](Cc2cnc[nH]2)NC(=O)CSC[C@@H](C(=O)N[C@@H](C)C(N)=O)NC(=O)[C@H](CO)NC(=O)[C@H](C(C)C)NC(=O)[C@H](CC(C)C)NC(=O)[C@H](CC(N)=O)NC(=O)[C@@H](C)NC(=O)[C@H](C)N(C)C(=O)[C@H](C(C)C)NC(=O)[C@H](Cc2ccc(-c3ccccc3)cc2)NC1=O [Compound 1736] ({CH2CO}-HYDWL[Bip]V[NMeA][dA]NLVSCA-NH2; thioether N-14),0.02 µM
5,COc1cccc(C[C@@H]2NC(=O)[C@H](CC(=O)O)NC(=O)[C@H](Cc3ccc(O)cc3)NC(=O)[C@H](Cc3ccccc3)NC(=O)CSC[C@@H](C(=O)N[C@@H](C)C(N)=O)NC(=O)[C@H](CO)NC(=O)[C@H](C(C)C)NC(=O)[C@H](CC(C)C)NC(=O)[C@H](CC(N)=O)NC(=O)[C@@H](C)NC(=O)[C@H](C)N(C)C(=O)[C@H](C(C)C)NC(=O)[C@H](Cc3ccc(-c4ccccc4)cc3)NC(=O)[C@H](CC(C)C)NC2=O)c1 [Compound 1739] ({CH2CO}-FYD[Phe(3-OMe)]L[Bip]V[NMeA][dA]NLVSCA-NH2; thioether N-14),0.02 µM
6,CC(C)C[C@@H]1NC(=O)[C@H](CC(N)=O)NC(=O)[C@@H](CC(C)C)NC(=O)[C@H](C)N(C)C(=O)[C@H](CCCNC(=N)N)NC(=O)[C@H](Cc2ccc(-c3ccccc3)cc2)NC(=O)[C@H](C(C)C)NC(=O)[C@H](Cc2c[nH]c3ccccc23)NC(=O)[C@H](CC(=O)O)NC(=O)[C@H](Cc2ccc(O)cc2)NC(=O)[C@H](Cc2ccccc2)NC(=O)CSC[C@@H](C(=O)N[C@@H](C)C(N)=O)NC(=O)[C@H](CO)NC(=O)[C@H](C(C)C)NC1=O [Compound 1742] ({CH2CO}-FYDWV[Bip]R[NMeA][dL]NLVSCA-NH2; thioether N-14),0.02 µM
7,CC(C)C[C@@H]1NC(=O)[C@H](Cc2c[nH]c3ccccc23)NC(=O)[C@H](CC(=O)O)NC(=O)[C@H](Cc2ccc(O)cc2)NC(=O)[C@H](Cc2cccnc2)NC(=O)CSC[C@@H](C(=O)NCC(N)=O)NC(=O)[C@H](CO)NC(=O)[C@H](C(C)C)NC(=O)[C@H](CC(C)C)NC(=O)[C@H](CC(N)=O)NC(=O)[C@@H](C)NC(=O)[C@H](C)N(C)C(=O)[C@H](C(C)C)NC(=O)[C@H](Cc2ccc(-c3ccccc3)cc2)NC1=O [Compound 1743] ({CH2CO}-[3Pal]YDWL[Bip]V[NMeA][dA]NLVSCG-NH2; thioether N-14),0.02 µM
